Assay results from PubChem BioAssay (NCI).
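Protocol summary: plate cells (96-well), add compound at 5 concentrations, incubate 48 h, interpolate endpoints linearly. The concentration for 50% growth inhibition is given as GI50. TGI: concentration producing complete growth inhibition.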

Columns and labels:
Experiment in all cases: NCI tumour cell line growth inhibition, 48 h
[1] = system: BT-549 breast
[2] = system: LOX IMVI melanoma
[3] = system: OVCAR-5 ovarian
[4] = system: A498 renal
[5] = system: PC-3 prostate
[6] = system: NCI-H226 lung
[7] = system: MALME-3M melanoma
[8] = system: U251 CNS
[9] = system: M14 melanoma
[10] = system: OVCAR-8 ovarian
[11] = system: HCT-15 colon
[12] = system: SW-620 colon
[13] = system: NCI-H23 lung
[14] = system: SK-OV-3 ovarian
[15] = system: MOLT-4 leukemia
[16] = system: HOP-62 NSCLC
[17] = system: HCC-2998 colon
[18] = system: CAKI-1 renal
[19] = system: COLO 205 colon
[20] = system: UACC-62 melanoma
[21] = system: UO-31 renal
[22] = system: ACHN renal
[23] = system: SK-MEL-2 melanoma
[24] = system: UACC-257 melanoma
[25] = system: TK-10 renal
[26] = system: SR leukemia
[27] = system: RXF 393 renal
[28] = system: EKVX NSCLC
[29] = system: IGROV1 ovarian
[30] = system: K-562 leukemia
[31] = system: MDA-MB-231 breast
[32] = system: HOP-92 NSCLC
[33] = system: KM12 colon
[34] = system: NCI-H522 lung
[35] = system: SK-MEL-28 melanoma
[36] = system: SF-295 CNS
[37] = system: T-47D breast
[38] = system: MCF7 breast
[39] = system: HL-60(TB) leukemia
[40] = system: DU-145 prostate
[41] = system: MDA-MB-435
[42] = system: RPMI-8226 leukemia
[43] = system: NCI/ADR-RES ovarian
[44] = system: A549 NSCLC
[45] = system: SN12C renal
[46] = system: NCI-H460 lung
[47] = system: 786-0 renal
[48] = system: OVCAR-4 ovarian
[49] = system: SK-MEL-5 melanoma
[50] = system: HS 578T breast
[51] = system: HCT-116 colon
[52] = system: SF-268 CNS
[53] = system: HT29 colon
[54] = system: SF-539 CNS
[55] = system: SNB-75 CNS
[56] = system: CCRF-CEM leukemia
[57] = system: OVCAR-3 ovarian
[58] = system: SNB-19 CNS

SMILES: CSc1ccc(/C(=N/N=C(N)N)c2ccc(F)cc2)cc1
- GI50 [1]: 5600 nM
- TGI [1]: 17100 nM
- GI50 [2]: 324 nM
- TGI [2]: 1550 nM
- GI50 [3]: 651 nM
- TGI [3]: 12700 nM
- GI50 [4]: 390 nM
- TGI [4]: 2960 nM
- GI50 [5]: 466 nM
- TGI [5]: 11400 nM
- GI50 [6]: 1850 nM
- TGI [6]: 14700 nM
- GI50 [7]: 1010 nM
- TGI [7]: 3250 nM
- GI50 [8]: 415 nM
- TGI [8]: 7130 nM
- GI50 [9]: 308 nM
- TGI [9]: 1100 nM
- GI50 [10]: 1290 nM
- TGI [10]: 14900 nM
- GI50 [11]: 341 nM
- TGI [11]: 9850 nM
- GI50 [12]: 457 nM
- TGI [12]: 9760 nM
- GI50 [13]: 328 nM
- TGI [13]: 3870 nM
- GI50 [14]: 780 nM
- TGI [14]: 15500 nM
- GI50 [15]: 533 nM
- TGI [15]: 10900 nM
- GI50 [16]: 755 nM
- TGI [16]: 9200 nM
- GI50 [17]: 314 nM
- TGI [17]: 1180 nM
- GI50 [18]: 536 nM
- TGI [18]: 4820 nM
- GI50 [19]: 415 nM
- TGI [19]: 1770 nM
- GI50 [20]: 417 nM
- TGI [20]: 7300 nM
- GI50 [21]: 856 nM
- TGI [21]: 4450 nM
- GI50 [22]: 724 nM
- TGI [22]: 10500 nM
- GI50 [23]: 2670 nM
- TGI [23]: 17500 nM
- GI50 [24]: 1460 nM
- TGI [24]: 11200 nM
- GI50 [25]: 2920 nM
- TGI [25]: 17200 nM
- GI50 [26]: 360 nM
- TGI [26]: 1800 nM
- GI50 [27]: 189 nM
- TGI [27]: 708 nM
- GI50 [28]: 600 nM
- TGI [28]: 13300 nM
- GI50 [29]: 421 nM
- TGI [29]: 3470 nM
- GI50 [30]: 336 nM
- TGI [30]: 6520 nM
- GI50 [31]: 807 nM
- TGI [31]: 10000 nM
- GI50 [32]: 797 nM
- TGI [32]: 6110 nM
- GI50 [33]: 423 nM
- TGI [33]: 11700 nM
- GI50 [34]: 392 nM
- TGI [34]: 11700 nM
- GI50 [35]: 1410 nM
- TGI [35]: 11600 nM
- GI50 [36]: 304 nM
- TGI [36]: 10500 nM
- GI50 [37]: 560 nM
- TGI [37]: 11700 nM
- GI50 [38]: 358 nM
- TGI [38]: 3690 nM
- GI50 [39]: 273 nM
- TGI [39]: 873 nM
- GI50 [40]: 415 nM
- TGI [40]: 3840 nM
- GI50 [41]: 230 nM
- TGI [41]: 551 nM
- GI50 [42]: 468 nM
- TGI [42]: 3160 nM
- GI50 [43]: 1660 nM
- TGI [43]: 7250 nM
- GI50 [44]: 480 nM
- TGI [44]: 10600 nM
- GI50 [45]: 672 nM
- TGI [45]: 10000 nM
- GI50 [46]: 367 nM
- TGI [46]: 3400 nM
- GI50 [47]: 802 nM
- TGI [47]: 12500 nM
- GI50 [48]: 982 nM
- TGI [48]: 15600 nM
- GI50 [49]: 393 nM
- TGI [49]: 1490 nM
- GI50 [50]: 872 nM
- TGI [50]: 10500 nM
- GI50 [51]: 346 nM
- TGI [51]: 4580 nM
- GI50 [52]: 787 nM
- TGI [52]: 11600 nM
- GI50 [53]: 350 nM
- TGI [53]: 5470 nM
- GI50 [54]: 367 nM
- TGI [54]: 1650 nM
- GI50 [55]: 342 nM
- TGI [55]: 5560 nM
- GI50 [56]: 414 nM
- TGI [56]: 15700 nM
- GI50 [57]: 406 nM
- TGI [57]: 9680 nM
- GI50 [58]: 424 nM
- TGI [58]: 12500 nM

SMILES: O=C1Nc2cc(OC(F)(F)F)ccc2Oc2ccc(-c3ccnc(N4CCNCC4)c3)cc21
- GI50 [1]: 1950 nM
- TGI [1]: 3740 nM
- GI50 [3]: 1460 nM
- TGI [3]: 3290 nM
- GI50 [4]: 1600 nM
- TGI [4]: 2950 nM
- GI50 [5]: 1290 nM
- TGI [5]: 2870 nM
- GI50 [7]: 1260 nM
- TGI [7]: 2740 nM
- GI50 [8]: 1460 nM
- TGI [8]: 2850 nM
- GI50 [9]: 1230 nM
- TGI [9]: 2540 nM
- GI50 [10]: 1580 nM
- TGI [10]: 3000 nM
- GI50 [11]: 864 nM
- TGI [11]: 4560 nM
- GI50 [12]: 516 nM
- TGI [12]: 1730 nM
- GI50 [14]: 2570 nM
- TGI [14]: 6790 nM
- GI50 [15]: 1080 nM
- TGI [15]: 3290 nM
- GI50 [16]: 1600 nM
- TGI [16]: 3260 nM
- GI50 [17]: 1330 nM
- TGI [17]: 2690 nM
- GI50 [18]: 1150 nM
- TGI [18]: 2430 nM
- GI50 [19]: 1540 nM
- TGI [19]: 3080 nM
- GI50 [20]: 1650 nM
- TGI [20]: 3150 nM
- GI50 [21]: 1340 nM
- TGI [21]: 2660 nM
- GI50 [22]: 1680 nM
- TGI [22]: 3050 nM
- GI50 [23]: 1470 nM
- TGI [23]: 2930 nM
- GI50 [24]: 1550 nM
- TGI [24]: 3050 nM
- GI50 [25]: 1500 nM
- TGI [25]: 3470 nM
- GI50 [26]: 345 nM
- TGI [26]: 1820 nM
- GI50 [27]: 1390 nM
- TGI [27]: 2840 nM
- GI50 [29]: 1200 nM
- TGI [29]: 2550 nM
- GI50 [31]: 1610 nM
- TGI [31]: 3180 nM
- GI50 [32]: 1170 nM
- TGI [32]: 2510 nM
- GI50 [33]: 900 nM
- TGI [33]: 2740 nM
- GI50 [34]: 1590 nM
- TGI [34]: 3160 nM
- GI50 [35]: 1390 nM
- TGI [35]: 2730 nM
- GI50 [38]: 840 nM
- TGI [38]: > 100000 nM
- GI50 [40]: 1650 nM
- TGI [40]: 3080 nM
- GI50 [41]: 282 nM
- TGI [41]: 1030 nM
- GI50 [42]: 1840 nM
- TGI [42]: 4780 nM
- GI50 [43]: 1610 nM
- TGI [43]: 3500 nM
- GI50 [44]: 1130 nM
- TGI [44]: 2510 nM
- GI50 [45]: 1790 nM
- TGI [45]: 3620 nM
- GI50 [46]: 655 nM
- TGI [46]: 1940 nM
- GI50 [47]: 1530 nM
- TGI [47]: 2890 nM
- GI50 [48]: 1620 nM
- TGI [48]: 3250 nM
- GI50 [49]: 1620 nM
- TGI [49]: 3010 nM
- GI50 [50]: 1700 nM
- TGI [50]: 3980 nM
- GI50 [51]: 1000 nM
- TGI [51]: 2170 nM
- GI50 [52]: 1700 nM
- TGI [52]: 3480 nM
- GI50 [53]: 764 nM
- TGI [53]: 2060 nM
- GI50 [54]: 1580 nM
- TGI [54]: 2980 nM
- GI50 [55]: 1500 nM
- TGI [55]: 2860 nM
- GI50 [56]: 1870 nM
- TGI [56]: 6760 nM
- GI50 [57]: 1120 nM
- TGI [57]: 2490 nM
- GI50 [58]: 1550 nM
- TGI [58]: 3140 nM
